From patent publication US20240218022A1, “ANTI-VISTA MACROCYCLIC PEPTIDES AND COMPOSITIONS” (BRISTOL-MYERS SQUIBB COMPANY, priority 2022, published 2024)
Starred links: 1 amine or outer side, 2 acyl side, 3 side chain; linkers in the order of their positions; H or OH if unused. Positions of bridges follow the written chain, without caps; N, C: chain ends. Non-standard residues stand in square brackets, D forms with d. Residues, ends and D or L forms follow the SMILES beside them. γGlu = O=C(O)[C@H](CCC(=O)[*:2])N[*:1]; Tic = O=C(O)[C@@H]1Cc2ccccc2CN1; Ahp(2) = CCCCC[C@H](N)C(=O)O; NMeNle = CCCC[C@H](NC)C(=O)O; Tle = CC(C)(C)[C@H](N)C(=O)O; NHexGly = CCCCCCNCC(=O)O; Nle = CCCC[C@H](N)C(=O)O; Aun = NCCCCCCCCCCC(=O)O; AEEA = NCCOCCOCC(=O)O

Biological target: T1, mouse VISTA (mVISTA) (Mus musculus, UniProt Q9D659)
T1 construct: expressed in transfected cells; host or cells: Human embryonic kidney 293T cells
T1 sequence (Q9D659 33-308): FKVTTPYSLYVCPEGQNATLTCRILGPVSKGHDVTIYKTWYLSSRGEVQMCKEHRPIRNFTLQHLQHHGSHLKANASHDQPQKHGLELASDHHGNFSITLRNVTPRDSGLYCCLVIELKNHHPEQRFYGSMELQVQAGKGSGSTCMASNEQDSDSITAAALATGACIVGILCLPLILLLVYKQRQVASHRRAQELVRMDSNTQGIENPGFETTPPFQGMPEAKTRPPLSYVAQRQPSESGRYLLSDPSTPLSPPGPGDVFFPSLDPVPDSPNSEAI
Assay: Cell-Based Binding High-Content Assay For mVISTA (HC CBA mVISTA)
Settings: read-out: HC CBA mVISTA IC50
How it was run: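 293T cells expressing mouse VISTA, with compounds added either after seeding ("no wash") or before seeding and then washed out after 1 h. Biotinylated peptide 2 nM for 30 min at room temperature, then detection with Alexa 647–streptavidin. After fixation with Hoechst stain, plates were high-content imaged; IC50 from four-parameter logistic fit.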

| IC50 | SMILES |
| --- | --- |
| 28.4 nM | CCCCCCN1CC(=O)N[C@@H](Cc2ccc(O)cc2)C(=O)N[C@@H](CC(C)C)C(=O)N[C@@H](CC(N)=O)C(=O)N[C@@H](CCCNC(=N)N)C(=O)N[C@@H](CC(C)C)C(=O)N[C@@H](CCCCC)C(=O)N2CCC[C@H]2C(=O)N[C@@H](C(C)(C)C)C(=O)N[C@@H](CO)C(=O)N[C@H](C(=O)NCCOCCOCC(=O)N[C@@H](CCC(=O)NCCOCCOCC(=O)NCCCCCCCCCCC(=O)O)C(=O)O)CSCC(=O)N[C@@H](Cc2ccccc2)C(=O)N[C@@H](Cc2c[nH]c3ccccc23)C(=O)N[C@@H](CC(=O)O)C1=O [compound 2230] ({CH2CO}-FWD[NHexGly]YLNRL[Ahp(2)]P[Tle]SC[AEEA][γGlu][AEEA][Aun]-OH; thioether N-14) |
| 42.5 nM | CCCCCCN1CC(=O)N[C@@H](Cc2ccc(O)cc2)C(=O)N[C@@H](CC(C)C)C(=O)N[C@@H](CC(N)=O)C(=O)N[C@@H](CCCNC(=N)N)C(=O)N[C@@H](CC(C)C)C(=O)N[C@@H](CCCCC)C(=O)N2CCC[C@H]2C(=O)N[C@@H](C(C)(C)C)C(=O)N[C@@H](C(C)C)C(=O)N[C@H](C(=O)NCCOCCOCC(=O)N[C@@H](CCC(=O)NCCOCCOCC(=O)NCCCCCCCCCCC(=O)O)C(=O)O)CSCC(=O)N[C@@H](Cc2ccccc2)C(=O)N[C@@H](Cc2c[nH]c3ccccc23)C(=O)N[C@@H](CC(=O)O)C1=O [compound 2231] ({CH2CO}-FWD[NHexGly]YLNRL[Ahp(2)]P[Tle]VC[AEEA][γGlu][AEEA][Aun]-OH; thioether N-14) |
| 13 nM | CCCCCCN1CC(=O)N[C@@H](Cc2ccc(O)cc2)C(=O)N[C@@H](CC(C)C)C(=O)N[C@@H](CC(N)=O)C(=O)N[C@@H](CCCNC(=N)N)C(=O)N[C@@H](CC(C)C)C(=O)N[C@@H](CCCCC)C(=O)N2CCC[C@H]2C(=O)N[C@@H](C(C)(C)C)C(=O)N[C@@H](CC(=O)O)C(=O)N[C@H](C(=O)NCCOCCOCC(=O)N[C@@H](CCC(=O)NCCOCCOCC(=O)NCCCCCCCCCCC(=O)O)C(=O)O)CSCC(=O)N[C@@H](Cc2ccccc2)C(=O)N[C@@H](Cc2ccc(O)cc2)C(=O)N[C@@H](CC(=O)O)C1=O [compound 2232] ({CH2CO}-FYD[NHexGly]YLNRL[Ahp(2)]P[Tle]DC[AEEA][γGlu][AEEA][Aun]-OH; thioether N-14) |
| 29.1 nM | CCCCCCN1CC(=O)N[C@@H](Cc2ccc(O)cc2)C(=O)N[C@@H](CCCC)C(=O)N[C@@H](CC(N)=O)C(=O)N[C@@H](CCCNC(=N)N)C(=O)N[C@@H](CC(C)C)C(=O)N[C@@H](CCCCC)C(=O)N2CCC[C@H]2C(=O)N[C@@H](C(C)(C)C)C(=O)N[C@@H](CC(=O)O)C(=O)N[C@H](C(=O)NCCOCCOCC(=O)N[C@@H](CCC(=O)NCCOCCOCC(=O)NCCCCCCCCCCC(=O)O)C(=O)O)CSCC(=O)N[C@@H](Cc2ccccc2)C(=O)N[C@@H](Cc2ccc(O)cc2)C(=O)N[C@@H](CC(=O)O)C1=O [compound 2233] ({CH2CO}-FYD[NHexGly]Y[Nle]NRL[Ahp(2)]P[Tle]DC[AEEA][γGlu][AEEA][Aun]-OH; thioether N-14) |
| 32.2 nM | CCCCCCN1CC(=O)N[C@@H](Cc2ccc(O)cc2)C(=O)N[C@@H](CCCC)C(=O)N[C@@H](CC(N)=O)C(=O)N[C@@H](CCCNC(=N)N)C(=O)N[C@@H](CC(C)C)C(=O)N[C@@H](CCCCC)C(=O)N2CCC[C@H]2C(=O)N[C@@H](C(C)(C)C)C(=O)N[C@@H](C(C)C)C(=O)N[C@H](C(=O)NCCOCCOCC(=O)N[C@@H](CCC(=O)NCCOCCOCC(=O)NCCCCCCCCCCC(=O)O)C(=O)O)CSCC(=O)N[C@@H](Cc2ccccc2)C(=O)N[C@@H](Cc2ccc(O)cc2)C(=O)N[C@@H](CC(=O)O)C1=O [compound 2234] ({CH2CO}-FYD[NHexGly]Y[Nle]NRL[Ahp(2)]P[Tle]VC[AEEA][γGlu][AEEA][Aun]-OH; thioether N-14) |
| 15.1 nM | CCCCCCN1CC(=O)N[C@@H](Cc2ccc(O)cc2)C(=O)N[C@@H](CC(C)C)C(=O)N[C@@H](CC(N)=O)C(=O)N[C@@H](CCCNC(=N)N)C(=O)N[C@@H](CC(C)C)C(=O)N[C@@H](CCCCC)C(=O)N2CCC[C@H]2C(=O)N[C@@H](C(C)(C)C)C(=O)N[C@@H](CO)C(=O)N[C@H](C(=O)NCCOCCOCC(=O)N[C@@H](CCC(=O)NCCOCCOCC(=O)NCCCCCCCCCCC(=O)O)C(=O)O)CSCC(=O)N[C@@H](Cc2ccccc2)C(=O)N[C@@H](Cc2ccc(O)cc2)C(=O)N[C@@H](CC(=O)O)C1=O [compound 2235] ({CH2CO}-FYD[NHexGly]YLNRL[Ahp(2)]P[Tle]SC[AEEA][γGlu][AEEA][Aun]-OH; thioether N-14) |
| 23.7 nM | CCCCCCN1CC(=O)N[C@@H](Cc2ccc(O)cc2)C(=O)N[C@@H](CC(C)C)C(=O)N[C@@H](CC(N)=O)C(=O)N[C@@H](CCCNC(=N)N)C(=O)N[C@@H](CC(C)C)C(=O)N[C@@H](CCCCC)C(=O)N2CCC[C@H]2C(=O)N[C@@H](C(C)(C)C)C(=O)N[C@@H](CC(=O)O)C(=O)N[C@H](C(=O)NCCOCCOCC(=O)N[C@@H](CCC(=O)NCCOCCOCC(=O)NCCCCCCCCCCC(=O)O)C(=O)O)CSCC(=O)N[C@@H](Cc2ccccc2)C(=O)N[C@@H](Cc2c[nH]c3ccccc23)C(=O)N[C@@H](CC(=O)O)C1=O [compound 2236] ({CH2CO}-FWD[NHexGly]YLNRL[Ahp(2)]P[Tle]DC[AEEA][γGlu][AEEA][Aun]-OH; thioether N-14) |
| 36.2 nM | CCCCCCN1CC(=O)N[C@@H](Cc2ccc(O)cc2)C(=O)N[C@@H](CCCC)C(=O)N[C@@H](CC(N)=O)C(=O)N[C@@H](CCCNC(=N)N)C(=O)N[C@@H](CC(C)C)C(=O)N[C@@H](CCCCC)C(=O)N2CCC[C@H]2C(=O)N[C@@H](C(C)(C)C)C(=O)N[C@@H](CC(=O)O)C(=O)N[C@H](C(=O)NCCOCCOCC(=O)N[C@@H](CCC(=O)NCCOCCOCC(=O)NCCCCCCCCCCC(=O)O)C(=O)O)CSCC(=O)N[C@@H](Cc2ccccc2)C(=O)N[C@@H](Cc2c[nH]c3ccccc23)C(=O)N[C@@H](CC(=O)O)C1=O [compound 2237] ({CH2CO}-FWD[NHexGly]Y[Nle]NRL[Ahp(2)]P[Tle]DC[AEEA][γGlu][AEEA][Aun]-OH; thioether N-14) |
| 38 nM | CCCCCCN1CC(=O)N[C@@H](Cc2ccc(O)cc2)C(=O)N[C@@H](CCCC)C(=O)N[C@@H](CC(N)=O)C(=O)N[C@@H](CCCNC(=N)N)C(=O)N[C@@H](CC(C)C)C(=O)N[C@@H](CCCCC)C(=O)N2CCC[C@H]2C(=O)N[C@@H](C(C)(C)C)C(=O)N[C@@H](CO)C(=O)N[C@H](C(=O)NCCOCCOCC(=O)N[C@@H](CCC(=O)NCCOCCOCC(=O)NCCCCCCCCCCC(=O)O)C(=O)O)CSCC(=O)N[C@@H](Cc2ccccc2)C(=O)N[C@@H](Cc2ccc(O)cc2)C(=O)N[C@@H](CC(=O)O)C1=O [compound 2238] ({CH2CO}-FYD[NHexGly]Y[Nle]NRL[Ahp(2)]P[Tle]SC[AEEA][γGlu][AEEA][Aun]-OH; thioether N-14) |
| 48.6 nM | CCCCCCN1CC(=O)N[C@@H](Cc2ccc(O)cc2)C(=O)N[C@@H](CCCC)C(=O)N[C@@H](CC(N)=O)C(=O)N[C@@H](CCCNC(=N)N)C(=O)N(C)[C@@H](CCCC)C(=O)N[C@@H](CCCCC)C(=O)N2CCC[C@H]2C(=O)N[C@@H](C(C)(C)C)C(=O)N[C@@H](C(C)C)C(=O)N[C@H](C(=O)NCCOCCOCC(=O)N[C@@H](CCC(=O)NCCOCCOCC(=O)NCCCCCCCCCCC(=O)O)C(=O)O)CSCC(=O)N[C@@H](Cc2ccccc2)C(=O)N[C@@H](Cc2c[nH]c3ccccc23)C(=O)N[C@@H](CC(=O)O)C1=O [compound 2239] ({CH2CO}-FWD[NHexGly]Y[Nle]NR[NMeNle][Ahp(2)]P[Tle]VC[AEEA][γGlu][AEEA][Aun]-OH; thioether N-14) |
| 24.4 nM | CCCCCCN1CC(=O)N[C@@H](Cc2ccc(O)cc2)C(=O)N[C@@H](CC(C)C)C(=O)N[C@@H](CC(N)=O)C(=O)N[C@@H](CCCNC(=N)N)C(=O)N[C@@H](CC(C)C)C(=O)N[C@@H](CCCCC)C(=O)N2CCC[C@H]2C(=O)N[C@@H](C(C)(C)C)C(=O)N[C@@H](C(C)C)C(=O)N[C@H](C(=O)NCCOCCOCC(=O)N[C@@H](CCC(=O)NCCOCCOCC(=O)NCCCCCCCCCCC(=O)O)C(=O)O)CSCC(=O)N[C@@H](Cc2ccccc2)C(=O)N[C@@H](Cc2ccc(O)cc2)C(=O)N[C@@H](CC(=O)O)C1=O [compound 2240] ({CH2CO}-FYD[NHexGly]YLNRL[Ahp(2)]P[Tle]VC[AEEA][γGlu][AEEA][Aun]-OH; thioether N-14) |
| 38.9 nM | CCCCCCN1CC(=O)N[C@@H](Cc2ccc(O)cc2)C(=O)N[C@@H](CCCC)C(=O)N[C@@H](CC(N)=O)C(=O)N[C@@H](CCCNC(=N)N)C(=O)N[C@@H](CC(C)C)C(=O)N[C@@H](CCCCC)C(=O)N2CCC[C@H]2C(=O)N[C@@H](C(C)(C)C)C(=O)N[C@@H](CO)C(=O)N[C@H](C(=O)NCCOCCOCC(=O)N[C@@H](CCC(=O)NCCOCCOCC(=O)NCCCCCCCCCCC(=O)O)C(=O)O)CSCC(=O)N[C@@H](Cc2ccccc2)C(=O)N[C@@H](Cc2c[nH]c3ccccc23)C(=O)N[C@@H](CC(=O)O)C1=O [compound 2243] ({CH2CO}-FWD[NHexGly]Y[Nle]NRL[Ahp(2)]P[Tle]SC[AEEA][γGlu][AEEA][Aun]-OH; thioether N-14) |
| 32.2 nM | CCCCCCN1CC(=O)N[C@@H](Cc2ccc(O)cc2)C(=O)N[C@@H](CCCC)C(=O)N[C@@H](CC(N)=O)C(=O)N[C@@H](CCCNC(=N)N)C(=O)N2Cc3ccccc3C[C@H]2C(=O)N[C@@H](CCCCC)C(=O)N2CCC[C@H]2C(=O)N[C@@H](C(C)(C)C)C(=O)N[C@@H](CO)C(=O)N[C@H](C(=O)NCCOCCOCC(=O)N[C@@H](CCC(=O)NCCOCCOCC(=O)NCCCCCCCCCCC(=O)O)C(=O)O)CSCC(=O)N[C@@H](Cc2ccccc2)C(=O)N[C@@H](Cc2c[nH]c3ccccc23)C(=O)N[C@@H](CC(=O)O)C1=O [compound 2244] ({CH2CO}-FWD[NHexGly]Y[Nle]NR[Tic][Ahp(2)]P[Tle]SC[AEEA][γGlu][AEEA][Aun]-OH; thioether N-14) |
